# Measurements as given in the supplement of paper PMC10627819.
# Experiments:
# Assay in all cases: Bliss interaction score (quartile over a dose matrix) (fitness difference); higher = more antagonism (negative = synergy)
# B. subtilis 168 = tested on: B. subtilis 168
# Procedure, shortened: (§1)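 Fitness was derived from optical density at entry into stationary phase, divided by the robust mean of the no-drug wells on the same plate. That reading was taken as OD595, and the ratio was capped at 1. Single-drug fitness was inferred from the combination data. The Bliss score, observed fitness minus the expected product of single-drug fitness, was summarised as quartiles over technical, biological and donor/recipient replicates.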
# S. pneumoniae D39V = tested on: S. pneumoniae D39V
# Procedure, shortened: as §1
# S. aureus Newman = tested on: S. aureus Newman
# Procedure, shortened: as §1
# S. aureus DSM 20231 = tested on: S. aureus DSM 20231
# Procedure, shortened: as §1
# 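Further: first quartile when negative (synergy) and third quartile when positive (antagonism).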
Compound,Bliss interaction score (B. subtilis 168),Bliss interaction score (S. pneumoniae D39V),Bliss interaction score (S. aureus Newman),Bliss interaction score (S. aureus DSM 20231),Bliss interaction score (B. subtilis 168; main component drawn),Bliss interaction score (S. pneumoniae D39V; main component drawn),Bliss interaction score (S. aureus Newman; main component drawn),Bliss interaction score (S. aureus DSM 20231; main component drawn)
O=C(O[C@@H]1Cc2c(O)cc(O)cc2O[C@@H]1c1cc(O)c(O)c(O)c1)c1cc(O)c(O)c(O)c1 [EGCG] + CC1(C)S[C@@H]2[C@H](NC(=O)Cc3ccccc3)C(=O)N2[C@H]1C(=O)O [PenicillinG],0.0517,0.108,0.0531,0.059,–,–,–,–
CC(=O)O[C@H]1C[C@@]2(C)[C@@H](C[C@@H](O)[C@H]3[C@@]4(C)CC[C@@H](O)[C@@H](C)[C@@H]4CC[C@@]32C)/C1=C(\CCC=C(C)C)C(=O)O [Fusidic acid] + CN1C2=CC=CC=C2N=C3C1=CC=CC3=O [Pyocyanin],0.0385,0.0648,0.0295,0.0421,–,–,–,–
CCC[C@@H]1C[C@@H](C(=O)N[C@@H]([C@H]2O[C@H](SC)[C@H](O)[C@@H](O)[C@H]2O)[C@@H](C)O)N(C)C1 [Lincomycin] + CO[C@@]12[C@H](COC(N)=O)C3=C(C(=O)C(C)=C(N)C3=O)N1C[C@@H]1N[C@@H]12 [MitomycinC],0.0735,-0.0879,-0.0572,-0.0874,–,–,–,–
O=C(N[C@H](CO)[C@H](O)c1ccc([N+](=O)[O-])cc1)C(Cl)Cl [Chloramphenicol] + CO[C@@H]1[C@@H](OC(N)=O)[C@@H](O)[C@H](Oc2ccc3c(O)c(NC(=O)c4ccc(O)c(CC=C(C)C)c4)c(=O)oc3c2C)OC1(C)C [Novobiocin],0.0928,-0.111,0.0758,0.0712,–,–,–,–
O=C1CN(/N=C/c2ccc([N+](=O)[O-])o2)C(=O)N1 [Nitrofurantoin] + COc1cc(Cc2cnc(N)nc2N)cc(OC)c1OC [Trimethoprim],-0.181,-0.553,0.0663,-0.0418,–,–,–,–
C/C(=C\C(=O)OCCCCCCCCC(=O)O)C[C@@H]1OC[C@H](C[C@@H]2O[C@H]2[C@@H](C)[C@H](C)O)[C@@H](O)[C@H]1O [Pseudomonic acid] + CC[C@H]1OC(=O)[C@H](C)C(=O)[C@H](C)[C@@H](O[C@@H]2O[C@H](C)C[C@H](N(C)C)[C@H]2O)[C@](C)(OC)C[C@@H](C)C(=O)[C@H](C)[C@H]2N(CCCCn3cnc(-c4cccnc4)c3)C(=O)O[C@]12C [Telithromycin],0.0359,-0.0569,-0.028,0.0119,–,–,–,–
O=C(N[C@H](CO)[C@H](O)c1ccc([N+](=O)[O-])cc1)C(Cl)Cl [Chloramphenicol] + N[C@@H]1CONC1=O [CycloserineD],0.0478,0.141,-0.144,-0.168,–,–,–,–
CC(=O)O[C@H]1C[C@@]2(C)[C@@H](C[C@@H](O)[C@H]3[C@@]4(C)CC[C@@H](O)[C@@H](C)[C@@H]4CC[C@@]32C)/C1=C(\CCC=C(C)C)C(=O)O [Fusidic acid] + O=C1CN(/N=C/c2ccc([N+](=O)[O-])o2)C(=O)N1 [Nitrofurantoin],-0.0345,-0.186,-0.0292,-0.0226,–,–,–,–
C/C(=C\C(=O)OCCCCCCCCC(=O)O)C[C@@H]1OC[C@H](C[C@@H]2O[C@H]2[C@@H](C)[C@H](C)O)[C@@H](O)[C@H]1O [Pseudomonic acid] + COc1cc(Cc2cnc(N)nc2N)cc(OC)c1OC [Trimethoprim],0.0595,-0.143,0.0264,0.0182,–,–,–,–
C[C@@H](O)[C@H]1C(=O)N2C(C(=O)O)=C(SCCNC=N)C[C@H]12 [Imipenem] + CCCCCCCCCC(=O)N[C@@H]1[C@H]([C@@H]([C@H](O[C@H]1OC2=C3C=C4C=C2OC5=C(C=C(C=C5)[C@H]([C@H]6C(=O)N[C@@H](C7=C(C(=CC(=C7)O)OC8[C@H]([C@H]([C@@H]([C@H](O8)CO)O)O)O)C9=C(C=CC(=C9)[C@H](C(=O)N6)NC(=O)[C@@H]4NC(=O)[C@@H]1C2=CC(=CC(=C2)OC2=C(C=CC(=C2)[C@H](C(=O)N[C@H](CC2=CC(=C(O3)C=C2)Cl)C(=O)N1)N)O)O)O)C(=O)O)O[C@H]1[C@@H]([C@H]([C@@H]([C@H](O1)CO)O)O)NC(=O)C)Cl)CO)O)O [Teicoplanin],–,–,–,–,-0.0771,-0.102,0.0599,0.0578
CC(=O)O[C@H]1C[C@@]2(C)[C@@H](C[C@@H](O)[C@H]3[C@@]4(C)CC[C@@H](O)[C@@H](C)[C@@H]4CC[C@@]32C)/C1=C(\CCC=C(C)C)C(=O)O [Fusidic acid] + CC(=O)NC[C@H]1CN(c2ccc(N3CCOCC3)c(F)c2)C(=O)O1 [Linezolid],-0.141,-0.1,-0.0198,-0.0285,–,–,–,–
CC[C@H]1OC(=O)[C@H](C)[C@@H](O[C@H]2C[C@@](C)(OC)[C@@H](O)[C@H](C)O2)[C@H](C)[C@@H](O[C@@H]2O[C@H](C)C[C@H](N(C)C)[C@H]2O)[C@](C)(OC)C[C@@H](C)C(=O)[C@H](C)[C@@H](O)[C@]1(C)O [Clarithromycin] + COc1cc(Cc2cnc(N)nc2N)cc(OC)c1OC [Trimethoprim],-0.193,-0.0331,0.0667,0.0723,–,–,–,–
O=C(N[C@H](CO)[C@H](O)c1ccc([N+](=O)[O-])cc1)C(Cl)Cl [Chloramphenicol] + CC[C@H]1OC(=O)[C@H](C)[C@@H](O[C@H]2C[C@@](C)(OC)[C@@H](O)[C@H](C)O2)[C@H](C)[C@@H](O[C@@H]2O[C@H](C)C[C@H](N(C)C)[C@H]2O)[C@](C)(O)C[C@@H](C)C(=O)[C@H](C)[C@@H](O)[C@]1(C)O [Erythromycin],0.0488,0.0269,-0.103,0.0318,–,–,–,–
N[C@@H]1CONC1=O [CycloserineD] + COc1cccc2c1C(=O)c1c(O)c3c(c(O)c1C2=O)C[C@@](O)(C(=O)CO)C[C@@H]3O[C@H]1C[C@H](N)[C@H](O)[C@H](C)O1 [Doxorubicin],0.0778,0.0698,-0.0446,0.0418,–,–,–,–
